Patent publication US10106577B2, “Agonists of neurotrophin receptors and their use as medicaments” (BIONURE FARMA, S.L., priority 2010, dated 2018)
Values belong to the molecule of their own block, whether it stands above or below them.

Legend:
[1] = PAMPA model of passive BBB permeability; assay type: in vitro ADME; details: PAMPA; passive transport; pH 7.4; 18 hrs; read-out: Effective permeability (pe), PAMPA
Experimental: PAMPA is used as an in vitro model of passive BBB permeability. An artificial membrane immobilized on a filter is placed between a donor and acceptor compartment. At the start of the test, a drug is introduced in the donor compartment. Following the permeation period, the concentration of the drug in the donor and acceptor compartments are measured using UV spectroscopy. Therefore the permeability of any compound with a UV chromophore can be determined by this method.
The tested compound stock solutions were diluted 200-fold in universal buffer at pH 7.4 and added to the donor wells. The filter membrane was coated with PBL in dodecane and the acceptor well was filled with pH 7.4 buffer. The acceptor filter plate was carefully put on the donor plate to form a ‘sandwich’ (consisting of the aqueous donor with test the compound on the bottom, an artificial lipid membrane in the middle, and an aqueous acceptor on the top). The test compound diffused from the donor well through the lipid membrane and into the acceptor well. The ‘sandwich’ was left undisturbed for 18 hrs while the permeation occurred. The concentration of the test compound in the acceptor, the donor, and the reference wells was determined using the UV plate reader. Effective permeability (Pe) of each compound was calculated by using the pION PSR4p software. Samples were analyzed in triplicate and the average of the three runs was reported. Quality control standards were run with each sample set to monitor the consistency of the analysis set.

PC12 cells [2] = assay: Signalling inhibition assays (PC12 differentiation with LY294002 or PD98059); assay type: cell-based
Experimental: To evaluate if the transduction pathway induced by G79, G80, and G81 involves AKT and ERK activation, PC12 cell were treated with the test compounds in the presence of LY294002, an inhibitor of PI3K (an upstream activator of AKT) and PD98059, an inhibitor of MAPK kinase (an upstream activator of ERK). For this purpose, PC12 cells were plated into collagen-coated 24-wells plates with 2.5% FBS and after 72 hrs the cells were treated with the small molecules in combination with LY294002 (Sigma Aldrich, 10 μM) or PD98059 (Sigma Aldrich, 50 μM). NGF (100 ng/ml) was used as control and added alone or in combination with the inhibitors.

PC12 cells [3] = assay: Secretagogue activity assay (PC12 differentiation with antibody anti-NGF); assay type: cell-based
Experimental: To assess if the tested compounds, G79, G80, and G81, act as secretagogues, inducing neurotrophic activity through the synthesis of NGF, PC12 cells were plated into collagen-coated 24-wells plates with only 2.5% FBS and after 72 hrs the cells were treated with the tested compounds (each one at 100 ng/ml) together with antibody anti-NGF (1 μg/ml, AbCam). After three days of treatment, the differentiation was evaluated. The cell count was done in three randomly selected fields with 100 cells.

PC12 cells [4] = assay: Dose response differentiation assay in PC12 cell line; assay type: cell-based; details: 100 ng/ml; after 3 days of treatment
Experimental: Stock of PC12 cultures were maintained in Ham's F12 medium supplemented with 2.5% fetal bovine serum (FBS), 15% of horse serum (HS) and 1% penicillin/streptomycin. The cell culture was maintained in 5% CO2 at 37° C.
PC12 cell differentiation was assessed by treating the cells with all the test compounds (G79, G80, and G81) at different testing concentration (2-20-100 ng/ml and 2-20-50 μg/ml). The cells were first plated into collagen-coated 24-wells plates with 2.5% FBS in the medium to be de-differentiated. After 72 hrs, the test compounds were added and NGF (Sigma Aldrich; 100 ng/ml) as positive control of differentiation. The number of differentiated cells, with neurite processes greater than two cell bodies in length, is counted after 3 days of treatment. The cell count is done in three randomly selected fields with 100 cells.

PC12 cells [5] = assay: Synergistic activity assay (PC12 differentiation in combination with NGF); assay type: cell-based; details: NGF alone 100 ng/ml
Experimental: To evaluate if the small molecules G79, G80, and G81 interfere with the maximal activity of NGF or lead to additive effects, PC12 cells were plated into collagen-coated 24-wells plates with 2.5% FBS and treated after 72 h with the small chemicals (each one at 100 ng/ml) in combination with NGF at the concentration of 100 ng/ml. In the same experiment PC12 cells were treated with the small molecules or NGF alone, as controls. The number of differentiated cells was evaluated after three days of treatment. The cell count was done in three randomly selected fields with 100 cells.

[6] = test system: retinal ganglion cells (RGC); assay: Glaucoma model, count of retinal ganglion cells; assay type: in vivo, Sprague Dawley rats; details: first experiment; eye drops, NGF 200, G79 200 and 400 μg/ml
Experimental: 12 Sprague Dawley rats (4 months of age) were anesthetized with […] and subjected to hypertonic saline solution injection into the episcleral vein of the right eye. Intraocular pressure (IOP) was measured before the operation and was monitored one time a week using a TonoLab for 7 weeks. Treatment with G79 was begun one week after glaucoma induction by topical application at the conjunctive. Two different experiments were performed.
In the first experiment, G79 was dissolved into physiological solution and was used at two different concentration (200 μg/ml and 400 μg/ml). NGF was used as positive control (200 μg/ml) and the physiological solution, used to dissolve all the molecules, was subministered as placebo. The animals were divided into 4 groups (3 animals in each group): glaucoma-G79 200 μg/ml; glaucoma-G79 […]; glaucoma-NGF; glaucoma-placebo. The left eye was used as the control without glaucoma. In both experiments, seven weeks after glaucoma induction, animals were sacrificed by overdose of anaesthetic and their eyes were taken and fixed in 4% of PFA. The eyes were included in paraffin and cut into 20 μm sections to be used for histological studies (hematoxilin-eosin staining). The cell count of the number of retinal ganglion cells (RGC) was performed randomly in ten different fields for each eye.
Rats were injected with a hypertonic solution in the eye that induced high intraocular pressure for five weeks. Animals were treated with eye drops of NGF ([…]), G79 ([…]) or placebo every day for five weeks. Animals with glaucoma and treated with placebo (saline) have a significant decrease in the number of retinal ganglion cells compared with control.
In the second experiment, G79 at the concentration of 200 μg/ml was used. The objective of this second experiment was to compare the efficacy of G79 to Timolol, the most common therapy for glaucoma that works by decreasing the intraocular pressure. Also in this experiment, a combination treatment with G79 and Timolol was performed. […]

PC12 cells [7] = assay: Receptor activation assay (PC12 differentiation with anti-TrkA antibody); assay type: cell-based
Experimental: The hypothesis that G79, G80, and G81 can act through the binding to the extracellular portion of TrkA (binding site) and activate the tyrosine kinase receptor was tested by treating the PC12 cells with the small chemicals in combination with the antibody anti-TrkA or the K252a, a tyrosine kinase inhibitor. For this purpose PC12 cells were plated into collagen-coated 24-wells plates with 2.5% FBS and after 72 hrs were incubated with the small molecules alone or in combination with anti-TrkA antibody (AbCam, 1:2000) or K252a. NGF (100 ng/ml) was used as control and added alone or in combination with anti-TrkA antibody or K252a. The number of differentiated cells was evaluated after three days of treatment. The cell count was done in three randomly selected fields with 100 cells.

NSC-34 cells = assay: In vitro model of ALS, serum deprivation of motoneuron-like cells (MTT); assay type: cell-based, mouse; details: G-CSF 2 μg/ml; serum deprivation 48 h
Experimental: Mouse motoneuron-like cells NCS-34 were cultured in DMEM (Gibco) supplemented with 10% heat inactivated FBS and 1% penicillin/streptomycin. The cell culture was maintained in a humidified atmosphere of 95% air and CO2 at 37° C.
The nutritional deprivation stress in motorneurons was conducted as described previously in Masahito T. et al., J. Neuropathol. Exp. Neurol. 65(8):816-825 (2006). To assess the effect of trophic stress condition on ALS, the presence of apoptosis was investigated using serum deprivation. NSC-34 cells were seeded in 24-well poly-lysinated plates at 30,000 cells/well and preincubated for 24 h in DMEM plus 10% FBS with various doses of G79, G80, and G81 (20 ng/ml, 100 ng/ml, 2 μg/ml, 20 μg/ml, 50 μg/ml), and G-CSF (2 μg/ml) or BDNF (20 ng/ml) which both were used as positive controls (Masahito T. et al., ibid; Elliot J. L., Neurobiology of Disease 6:310-320 (1999)). Then, the medium was removed and replaced with fresh DMEM without FBS. After 48 h, cell viability was assayed by MTT assay, as described previously.

Papp at 18 h [1]: 103 nm/s
Molecule: NC(=O)N1c2ccccc2C=Cc2ccccc21 [carbamazepine]

Papp at 18 h [1]: 115 nm/s
Molecule: CC(C)NCC(O)COc1cccc2ccccc12 (stereo not shown) [propanolol]

Molecule: NGF: homodimeric protein from the neurotrophin family; positive control of differentiation and survival
number of differentiated cells (PC12 cells [2]; plus LY294002 (10 μM), inhibitor of PI3K): 6.8±2.7 | number of differentiated cells (PC12 cells [2]; plus PD98059 (50 μM), inhibitor of MAPK kinase): 2.1±1.9 | number of differentiated cells (PC12 cells [2]; treatment alone): 20.7±7.1 | number of differentiated cells for each field (PC12 cells [3]; 100 ng/ml together with antibody anti-NGF (1 μg/ml)): 12.8±6.3 | number of differentiated cells for each field (PC12 cells [3]; 100 ng/ml, treatment alone): 20.7±7.1 | number of differentiated cells in a field of 100 cells (PC12 cells [4]): 16.1±1.9 cells | number of differentiated cells (PC12 cells [5]): 20±7.1 | protection of retinal ganglion cells (number of RGC vs glaucoma-placebo) [6]: significant protection of the ganglion cells | number of differentiated cells (PC12 cells [7]; in combination with anti-TrkA antibody (1:2000)): 12.8±6.3 | number of differentiated cells (PC12 cells [7]; treatment alone): 20.7±7.1

B1: G-CSF: positive control (2 μg/ml) in the in vitro model of ALS (protein, UniProt P09919 31-207, looked up)
Granulocyte …: TPLGPASSLPQSFLLKCLEQVRKIQGDGAALQEKLVSECATYKLCHPEELVLLGHSLGIPWAPLSSCPSQALQLAGCLSQLHSGLFLYQGLLQALEGISPELGPTLDTLQLDVADFATTIWQQMEELGMAPALQPTQGAMPAFASAFQRRAGGVLVASHLQSFLEVSYRVLRHLAQP
cell viability, percentage relative to the control without stress (NSC-34 cells): 76.50±8.3%
